Test results: PubChem BioAssay AID540258 (Broad Institute, 2011)
Activity calls are given as the source filed them.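 How the source made its calls: active means fitted curve reaching 40% activation at or below the top valid dose tested; inconclusive means flat curve at 30 to 70% activation, or poor fit; inactive means the rest.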

Key:
[1] = activation of TRPM1 promoter luciferase in melanoma cells – SK-MEL-5 cells, cherry-pick samples, dose response (AID 540258); details: SK-MEL-5 TRPM1 promoter luciferase reporter, 24 h, 100% = twice the neutral-control signal;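 on AC40: potency for activators that raise TRPM1 promoter luciferase signal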
[2] = tested on: SK-MEL-5 TRPM1 promoter luciferase reporter, 24 h; assay: as above

Row | SMILES | activation ([1]; at 35 µM (top of the series)) | AC40 [2] | further results
1 | Cc1ccc(SCc2cn3c(C)csc3n2)cc1 | -37.7% (inactive) | – | –
2 | Cc1cccc(C(=O)Nc2sc3c(c2C#N)CCCCC3)c1 | 3.85% (inactive) | – | –
3 | COc1cccc(/C=N/Nc2c(Cl)cncc2Cl)c1O | 25.5% (inactive) | – | –
4 | Cc1ccccc1C(=O)O/N=C(\N)Cc1cccs1 | 23.1% (inactive) | – | –
5 | Fc1ccccc1Nc1nc2ccccc2o1 | -20% (inactive) | – | –
6 | CC(C)(C)c1csc(NC2=NS(=O)(=O)c3ccccc32)n1 | 7.7% (inactive) | – | –
7 | Cc1ccn2cc(-c3cccc(NS(C)(=O)=O)c3)nc2c1 | 32.6% (inactive) | – | –
8 | Cc1nnc2sc(-c3ccc(N(C)C)cc3)nn2c1=O | -5.15% (inactive) | – | –
9 | O=C(CNC(=O)c1cccs1)c1ccc(Br)cc1 | 1.98% (inactive) | – | –
10 | COC(=O)C(C)N1C(=O)S/C(=C/c2cc(C)n(C(C)C)c2C)C1=O (centres undefined) | -32% (inactive) | – | –
11 | COc1ccc(NC2=Nc3ccccc3CC2)cc1 | 2.84% (inactive) | – | –
12 | CCN(CC)C(=O)Oc1ccc2c(=O)c(-c3ccc(OC)cc3)coc2c1 | -22.5% (inactive) | – | –
13 | COc1cccc(CN(C)C(=O)c2ccc(COc3ccc(Cl)cc3)cc2)c1OC | 32.6% (inactive) | – | –
14 | O=C(Nc1ccccc1)C(=O)Nc1ccc2c(c1)N(C(=O)C1CC1)CCC2 | -36.8% (inactive) | – | –
15 | CCN(CC)S(=O)(=O)c1cccc(C(=O)N/N=C(\C)c2cccs2)c1 | 23.7% (inactive) | – | –
16 | CC(C)(C)C(=O)Nc1nc2cc3c(cc2s1)OCO3 | -25.8% (inactive) | – | –
17 | O=C(N/N=C/c1ccc(OC(=O)c2ccccc2Cl)cc1)c1ccccn1 | 6.04% (inactive) | – | –
18 | CC(C)NC(=O)c1ccc2c3n(nc2c1)-c1ccc(Cl)cc1CO3 | -2.69% (inactive) | – | –
19 | Cc1cc(C)n2nc(SCN3C(=O)c4ccccc4C3=O)nc2n1 | -5.27% (inactive) | – | –
20 | O=C(CNc1ccccc1OC(F)F)N1CCc2ccccc21 | 31.9% (inactive) | – | –
21 | O=C(Nc1cccc2[nH]ncc12)c1ccc(F)cc1 | 28.3% (inactive) | – | –
22 | CCCc1ccc(-c2cc(C(=O)NCCc3ccc(S(N)(=O)=O)cc3)c3ccccc3n2)cc1 | 26.4% (inactive) | – | –
23 | CSCC[C@H](NC(=O)[C@@H]1Cc2ccccc2CN1)C(=O)NC[C@H]1CC[C@H](C(=O)O)CC1 | -11.7% (inactive) | – | –
24 | Cc1c(C(=O)Nc2ccccc2F)cnn1-c1ccccc1 | 27.5% (inactive) | – | –
25 | C/C(=N\OC(=O)c1cccc(C(F)(F)F)c1)c1sc(-c2ccccc2)nc1C | 14.6% (inactive) | – | –

Row | SMILES | activation ([1]; at 35 µM (top of the series)) | AC40 [2] | further results
26 | COc1ccc(-c2cc(=O)c3cc(C)ccc3[nH]2)cc1 | -4.97% (inactive) | – | –
27 | CCc1nnc(NS(=O)(=O)c2ccc(NC(=O)c3cccc(Cl)c3)cc2)s1 | -14.9% (inactive) | – | –
28 | CC(c1ccccc1)c1nnc(NC(=O)Nc2ccccc2F)s1 (centres undefined) | 38.2% (inactive) | – | –
29 | CCN(CC)c1ccc(C(=O)NNC(=O)c2cccn2C)cc1 | 25.3% (inactive) | – | –
30 | COC(=O)Cn1c(=NC(=O)c2ccc(Cl)s2)sc2cc(C)ccc21 | 23.7% (inactive) | – | –
31 | CN1CCc2c(sc(NC(=O)c3ccc4ccccc4c3)c2C(N)=O)C1 | -68.3% (inactive) | – | –
32 | CC1CCC(NC(=O)c2cc3c(s2)CCCC3)CC1 (centres undefined) | 33.2% (inactive) | – | –
33 | O=c1[nH]c(Cc2cccs2)nc2scc(-c3ccc(Cl)cc3)c12 | 14.1% (inactive) | – | –
34 | COC(=O)Nc1nnc(-c2ccccc2Cl)s1 | 36% (inactive) | – | –
35 | COc1cccc(CNc2nc3ccccc3n2C)c1O | -9.75% (inactive) | – | –
36 | COc1ccc(/C=C/c2ccc3c(Br)ccc(O)c3n2)cc1 | 25.4% (inactive) | – | –
37 | Cc1nc2ccccn2c1C(=O)N/N=C/c1ccc2c(c1)OCO2 | 34.3% (inactive) | – | –
38 | COc1ccccc1C(=O)Nc1ccc2c(C)cc(=O)oc2c1 | 29.6% (inactive) | – | –
39 | COc1ccc(C(=O)Nc2cc(OC)nc(OC)n2)cc1 | 6.12% (inactive) | – | –
40 | CC(C)(C)N1C(=O)c2ccc(C(=O)Nc3nccs3)cc2C1=O | 39% (inactive) | – | –
41 | Cc1cc(C)n(-c2nnc(NC(C)(C)C)nn2)n1 | 31.6% (inactive) | – | –
42 | Cc1ccn2cc(C(=O)Nc3nnc(C)s3)nc2c1 | – | – | activation ([1]; at 11 µM (top of the series)): 28.3% (inactive)
43 | Cc1ccc2oc(Nc3nc(C)c(C)c(C)n3)nc2c1 | 34.2% (inactive) | – | –
44 | Cc1ccc(Nc2nc(CSc3n[nH]c(N)n3)cs2)cc1 | -11.9% (inactive) | – | –
45 | Cc1ccc(NC(=O)CN2CCCC2c2cccn2C)c(Br)c1 (centres undefined) | 29% (inactive) | – | –
46 | CC(=O)Nc1cccc(-c2csc(Nc3ccc(C)cn3)n2)c1 | -25.2% (inactive) | – | –
47 | O=C(Nc1cnc2ccccc2c1)N1CCCCC1 | 8.92% (inactive) | – | –
48 | CCN(CC)S(=O)(=O)c1cc(C(=O)Nc2cc(C)[nH]n2)ccc1Cl | 32.8% (inactive) | – | –
49 | Nc1ncccc1OCc1ccc(Br)cc1 | -6.84% (inactive) | – | –
50 | Cc1ccc(N=Nc2ccc(O)cc2)c(Br)c1 | -1.83% (inactive) | – | –

Row | SMILES | activation ([1]; at 35 µM (top of the series)) | AC40 [2] | further results
51 | Cc1nc(-c2ccc(NC(=O)c3ccccc3Br)cc2)cs1 | – | 1.57 µM | –
52 | C(=N\Nc1nc2ccccc2[nH]1)/c1c[nH]c2ccccc12 | – | 5.09 µM | –
53 | CCc1ccc2[nH]c3nc(C)cc(C)c3c(=O)c2c1 | – | 4 µM | –
54 | O=C(Nc1ccc(OC(F)F)c(Cl)c1)c1ccccn1 | – | 0.461 µM | –
55 | COc1ccc2c(c1)CC/C2=N\OC(=O)c1ccccc1C | – | 1.27 µM | –
56 | C=CCN=C1S/C(=C\c2ccc(N(C)C)cc2)C(=O)N1CC=C | – | 21.5 µM | –
57 | O=c1nc2sc3ccccc3n2c(=O)n1-c1ccc(Cl)cc1 | – | 3.48 µM | –
58 | COc1cc(O)c2c(=O)cc(-c3ccccc3)oc2c1 | – | 14.2 µM | –
59 | CSc1ccc(CNc2ccc(Cl)cc2)cc1 | – | 5.67 µM | –
60 | CCN=c1scc(-c2ccc(F)cc2)n1/N=C/c1ccccn1 | – | 0.798 µM | –
61 | Cc1ccc(/C=N/c2sc3c(c2C#N)CCC3)s1 | 3.01% (inactive) | – | –
62 | COc1cc2sc3cc(NCC[C@@H]4CCCN4C)ccc3c(=O)c2cc1OC | – | 5.18 µM | –
63 | c1ccc(-c2ccc(-c3cnc4n3CCCCC4)cc2)cc1 | 30.4% (inactive) | – | –
64 | CC(=O)c1ccc(NC(=O)c2noc3c2CCCCC3)cc1 | -0.504% (inactive) | – | –
65 | CC(=O)N(c1ccccc1)c1nnc(-c2cnc(C)cn2)s1 | – | 1.55 µM | –
66 | Cc1ccc2c(c1N)C(=O)c1ccccc1C2=O | – | 3.96 µM | –
67 | c1ccc(-c2ccc3[nH]ccc3c2)cc1 | – | 14 µM | –
68 | COc1cccc(Nc2nc(-c3ccc(O)cc3)cs2)c1 | – | 3.18 µM | –
69 | CCCc1ccc(C(=O)NNc2ccccc2F)cc1 | – | 8.64 µM | –
70 | Cc1ccc(-c2csc(C(C#N)=C3CCCC3)n2)cc1 | – | 2.84 µM | –
71 | Clc1ccc(OCc2noc(-c3ccsc3)n2)c(Cl)c1 | – | 1.45 µM | –
72 | CC(C)(C)c1ccc(-c2cc(C(=O)NNC(=O)Nc3ccccc3)c3ccccc3n2)cc1 | – | 3.33 µM | –
73 | COc1ccc(/C=N/N=C2/SCC(=O)N2Cc2ccccc2)cc1 | – | 2.67 µM | –
74 | O=C(NCCc1c[nH]c2ccccc12)c1cc(Cl)c2c(c1)OCO2 | – | 17 µM | –
75 | O=C(NCCc1cccs1)c1ccc(Cl)c(Cl)c1 | – | 3.47 µM | –

Row | SMILES | activation ([1]; at 35 µM (top of the series)) | AC40 [2] | further results
76 | CCCn1nnc(NC(=O)c2ccc(-c3ccccc3)cc2)n1 | – | 2.69 µM | –
77 | CCCCN1C(=O)/C(=C/C=C2\SCCN2C)SC1=S | – | 5.57 µM | –
78 | CC(=O)c1ccc2c(c1)Cc1cc(C(C)=O)ccc1-2 | – | 1.19 µM | –
79 | CCn1cnc2c(Nc3cccc(Cl)c3)nc(C#N)nc21 | 14.6% (inactive) | – | –
80 | O=C(Nc1cccc(F)c1)NC1CCCCCCC1 | – | 6.52 µM | –
81 | COc1cc(/C=C2\SC(=S)N(Nc3ccccc3)C2=O)ccc1O | – | 3.01 µM | –
82 | O=C(Cc1ccc(O)cc1)NC1CCCCCC1 | – | 10.6 µM | –
83 | O=C(Cc1ccccc1)Nc1ccc2c(c1)OC1(CCCC1)O2 | – | 3.23 µM | –
84 | CCCCCc1ccc(-c2ccc(OC)cc2)nc1 | – | 1.38 µM | –
85 | COc1ccc(-c2noc(-c3cccc(OC)c3OC)n2)cc1OC | – | 1.33 µM | –
86 | O=c1[nH]c(COc2ccccc2)nc2ccccc12 | 24.6% (inactive) | – | –
87 | Fc1cc(Br)ccc1COc1ccc(-c2nnco2)cc1 | – | 3.08 µM | –
88 | O=c1c2ccccc2oc2c1ccc1ccccc12 | – | 10.5 µM | –
89 | COc1ccc(-c2csc(-n3cccn3)n2)cc1 | – | 1.1 µM | –
90 | O=C(Nc1ccccc1)N1CCC(c2ccccc2)C1 (centres undefined) | – | 1.8 µM | –
91 | C1=C(c2cc3ccccc3cn2)CCCC1 | – | 1.08 µM | –
92 | O=C(Nc1ccc2ccccc2c1)c1cc(F)c(F)cc1Cl | – | 1.86 µM | –
93 | CCN(N=O)c1ccc(C=C2C=Cc3ccccc32)cc1 | – | 0.238 µM | –
94 | CC(C)C(=O)Nc1cccc(C(=O)Nc2nnc(C(C)C)s2)c1 | 16.6% (inactive) | – | –
95 | Clc1ccc(C#Cc2cccnc2)cc1 | – | 5.78 µM | –
96 | COc1ccc(C(=O)/C=C/Nc2cccc(C)n2)cc1OC | – | 0.977 µM | –
97 | Nc1ccc(O)c2c(=O)cc(-c3ccccc3Cl)oc12 | – | 1.13 µM | –
98 | Cn1c2ccccc2c(=O)c2cc(C#Cc3ccccn3)ccc21 | – | > 35 µM (inactive) | –
99 | O=C(Nc1ccc2c(c1)CCC2)C1CCCN(c2ncccn2)C1 (centres undefined) | – | 3.54 µM | –
